Assay results taken from patent publication US20250144094A1 (Erasca, Inc., priority 2021, published 2025).

Target: Recombinant human ULK1 (1-649) (Homo sapiens (Human), UniProt O75385)
Assay: ULK1 ADP Glo kinase activity assay, new method (ULKtide peptide substrate)
Conditions: 25° C., 40 minutes, read-out: ULK1 biochemical IC50
Summary of the method: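 GST-tagged human ULK1 (1-649) from Sf9 cells was reacted with ULKtide peptide and ATP for 40 min at 25 °C across 12-point compound dilutions from 10 μM. ADP formed was quantified by ADP-Glo luminescence; IC50 came from four-parameter fits relative to DMSO controls.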

Chain of Recombinant human ULK1 (1-649) (O75385 1-649): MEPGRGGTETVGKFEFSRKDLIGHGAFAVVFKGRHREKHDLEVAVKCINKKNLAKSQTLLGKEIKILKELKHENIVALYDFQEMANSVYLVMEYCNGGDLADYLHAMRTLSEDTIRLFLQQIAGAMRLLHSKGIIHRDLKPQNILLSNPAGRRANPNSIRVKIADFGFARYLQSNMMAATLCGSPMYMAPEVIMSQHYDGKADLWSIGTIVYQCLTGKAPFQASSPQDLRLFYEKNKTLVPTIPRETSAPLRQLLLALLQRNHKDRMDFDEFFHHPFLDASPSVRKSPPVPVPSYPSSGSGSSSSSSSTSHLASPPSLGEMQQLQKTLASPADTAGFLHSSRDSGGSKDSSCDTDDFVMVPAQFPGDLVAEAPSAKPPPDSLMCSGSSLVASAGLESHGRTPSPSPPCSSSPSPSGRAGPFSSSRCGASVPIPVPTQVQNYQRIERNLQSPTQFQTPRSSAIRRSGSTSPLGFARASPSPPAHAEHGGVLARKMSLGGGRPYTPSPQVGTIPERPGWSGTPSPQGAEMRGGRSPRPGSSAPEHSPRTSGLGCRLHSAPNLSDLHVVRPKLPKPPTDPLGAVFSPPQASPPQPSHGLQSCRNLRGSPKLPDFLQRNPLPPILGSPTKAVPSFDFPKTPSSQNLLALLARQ

`CN1[C@@H]2CC[C@H]1CN(c1ccc(Nc3ncc(C(F)(F)F)c(-c4cc5c(s4)C(=O)N(C4COC4)CCS5(=O)=O)n3)c(C3CC3)c1)C2` [Example 320, 7-(2-((2-cyclopropyl-4-((1R,5S)-8-methyl-3,8-diazabicyclo[3.2.1]octan-3-yl)phenyl)amino)-5-(trifluoromethyl)pyrimidin-4-yl)-4-(oxetan-3-yl)-3,4-dihydrothieno[2,3-f][1,4]thiazepin-5(2H)-one 1,1-dioxide] and `CN1C2CC1CN(c1ccc(Nc3ncc(C(F)(F)F)c(-c4cc5c(s4)C(=O)N(C4CC4)CCS5(=O)=O)n3)c(C3CC3)c1)C2` [Example 339, 4-cyclopropyl-7-(2-((2-cyclopropyl-4-(6-methyl-3,6-diazabicyclo[3.1.1]heptan-3-yl)phenyl)amino)-5-(trifluoromethyl)pyrimidin-4-yl)-3,4-dihydrothieno[2,3-f][1,4]thiazepin-5(2H)-one 1,1-dioxide] cannot be ordered by IC50: ≤ 5 nM for the first, ≤ 5 nM for the second.

`CCc1cc(N2C[C@@H]3C[C@H]2CN3C)ccc1Nc1ncc(C(F)(F)F)c(-c2cc3c(s2)C(=O)N(C2CC2)CCS3(=O)=O)n1` [Example 321, 4-cyclopropyl-7-(2-((2-ethyl-4-((1S,4S)-5-methyl-2,5-diazabicyclo[2.2.1]heptan-2-yl)phenyl)amino)-5-(trifluoromethyl)pyrimidin-4-yl)-3,4-dihydrothieno[2,3-f][1,4]thiazepin-5(2H)-one 1,1-dioxide] and `CCc1cc(N2C[C@H]3C[C@@H]2CN3C)ccc1Nc1ncc(C(F)(F)F)c(-c2cc3c(s2)C(=O)N(C2CC2)CCS3(=O)=O)n1` [Example 323, 4-cyclopropyl-7-(2-((2-ethyl-4-((1R,4R)-5-methyl-2,5-diazabicyclo[2.2.1]heptan-2-yl)phenyl)amino)-5-(trifluoromethyl)pyrimidin-4-yl)-3,4-dihydrothieno[2,3-f][1,4]thiazepin-5(2H)-one 1,1-dioxide] cannot be ordered by IC50: ≤ 5 nM for the first, ≤ 5 nM for the second.

`CCc1cc(N2C[C@H]3C[C@@H]2CN3)ccc1Nc1ncc(C(F)(F)F)c(-c2cc3c(s2)C(=O)N(C2CC2)CCS3(=O)=O)n1` [Example 322, 7-(2-((4-((1R,4R)-2,5-diazabicyclo[2.2.1]heptan-2-yl)-2-ethylphenyl)amino)-5-(trifluoromethyl)pyrimidin-4-yl)-4-cyclopropyl-3,4-dihydrothieno[2,3-f][1,4]thiazepin-5(2H)-one 1,1-dioxide] and `CCc1cc(N2C[C@@H]3C[C@H]2CN3)ccc1Nc1ncc(C(F)(F)F)c(-c2cc3c(s2)C(=O)N(C2COC2)CCS3(=O)=O)n1` [Example 335, 7-(2-((4-((1S,4S)-2,5-diazabicyclo[2.2.1]heptan-2-yl)-2-ethylphenyl)amino)-5-(trifluoromethyl)pyrimidin-4-yl)-4-(oxetan-3-yl)-3,4-dihydrothieno[2,3-f][1,4]thiazepin-5(2H)-one 1,1-dioxide] cannot be ordered by IC50: ≤ 5 nM for the first, ≤ 5 nM for the second.

`CCc1cc(N2C[C@H]3CC[C@@H](C2)N3)ccc1Nc1ncc(C(F)(F)F)c(-c2cc3c(s2)C(=O)N(C2CC2)CCS3(=O)=O)n1` [Example 324, 7-(2-((4-((1R,5S)-3,8-diazabicyclo[3.2.1]octan-3-yl)-2-ethylphenyl)amino)-5-(trifluoromethyl)pyrimidin-4-yl)-4-cyclopropyl-3,4-dihydrothieno[2,3-f][1,4]thiazepin-5(2H)-one 1,1-dioxide] and `CCc1cc(N2C[C@H]3CC[C@@H](C2)N3)ccc1Nc1ncc(C(F)(F)F)c(-c2cc3c(s2)C(=O)N(C2COC2)CCS3(=O)=O)n1` [Example 337, 7-(2-((4-((1R,5S)-3,8-diazabicyclo[3.2.1]octan-3-yl)-2-ethylphenyl)amino)-5-(trifluoromethyl)pyrimidin-4-yl)-4-(oxetan-3-yl)-3,4-dihydrothieno[2,3-f][1,4]thiazepin-5(2H)-one 1,1-dioxide] cannot be ordered by IC50: ≤ 5 nM for the first, ≤ 5 nM for the second.

`CCc1cc(N2C[C@H]3CC[C@@H](C2)N3C)ccc1Nc1ncc(C(F)(F)F)c(-c2cc3c(s2)C(=O)N(C2CC2)CCS3(=O)=O)n1` [Example 325, 4-cyclopropyl-7-(2-((2-ethyl-4-((1R,5S)-8-methyl-3,8-diazabicyclo[3.2.1]octan-3-yl)phenyl)amino)-5-(trifluoromethyl)pyrimidin-4-yl)-3,4-dihydrothieno[2,3-f][1,4]thiazepin-5(2H)-one 1,1-dioxide] and `C[C@H]1CN(c2ccc(Nc3ncc(C(F)(F)F)c(-c4cc5c(s4)C(=O)N(C4CC4)CCS5(=O)=O)n3)c(C3CC3)c2)C[C@H](C)N1C` [Example 328, 4-cyclopropyl-7-(2-((2-cyclopropyl-4-((3S,5S)-3,4,5-trimethylpiperazin-1-yl)phenyl)amino)-5-(trifluoromethyl)pyrimidin-4-yl)-3,4-dihydrothieno[2,3-f][1,4]thiazepin-5(2H)-one 1,1-dioxide] cannot be ordered by IC50: ≤ 5 nM for the first, 5 to 10 nM for the second.

`C[C@@H]1CN(c2ccc(Nc3ncc(C(F)(F)F)c(-c4cc5c(s4)C(=O)N(C4CC4)CCS5(=O)=O)n3)c(C3CC3)c2)C[C@H](C)N1` [Example 326, 4-cyclopropyl-7-(2-((2-cyclopropyl-4-((3S,5R)-3,5-dimethylpiperazin-1-yl)phenyl)amino)-5-(trifluoromethyl)pyrimidin-4-yl)-3,4-dihydrothieno[2,3-f][1,4]thiazepin-5(2H)-one 1,1-dioxide] and `C[C@H]1CN(c2ccc(Nc3ncc(C(F)(F)F)c(-c4cc5c(s4)C(=O)N(C4CC4)CCS5(=O)=O)n3)c(C3CC3)c2)C[C@H](C)N1` [Example 327, 4-cyclopropyl-7-(2-((2-cyclopropyl-4-((3S,5S)-3,5-dimethylpiperazin-1-yl)phenyl)amino)-5-(trifluoromethyl)pyrimidin-4-yl)-3,4-dihydrothieno[2,3-f][1,4]thiazepin-5(2H)-one 1,1-dioxide] cannot be ordered by IC50: ≤ 5 nM for the first, ≤ 5 nM for the second.

`O=C1c2sc(-c3nc(Nc4ccc(N5C[C@H]6C[C@@H]5CN6)cc4C4CC4)ncc3C(F)(F)F)cc2S(=O)(=O)CCN1C1CC1` [Example 329, 7-(2-((4-((1R,4R)-2,5-diazabicyclo[2.2.1]heptan-2-yl)-2-cyclopropylphenyl)amino)-5-(trifluoromethyl)pyrimidin-4-yl)-4-cyclopropyl-3,4-dihydrothieno[2,3-f][1,4]thiazepin-5(2H)-one 1,1-dioxide] and `CN1C[C@H]2C[C@@H]1CN2c1ccc(Nc2ncc(C(F)(F)F)c(-c3cc4c(s3)C(=O)N(C3CC3)CCS4(=O)=O)n2)c(C2CC2)c1` [Example 330, 4-cyclopropyl-7-(2-((2-cyclopropyl-4-((1R,4R)-5-methyl-2,5-diazabicyclo[2.2.1]heptan-2-yl)phenyl)amino)-5-(trifluoromethyl)pyrimidin-4-yl)-3,4-dihydrothieno[2,3-f][1,4]thiazepin-5(2H)-one 1,1-dioxide] cannot be ordered by IC50: ≤ 5 nM for the first, ≤ 5 nM for the second.

`C[C@H]1CN(c2ccc(Nc3ncc(C(F)(F)F)c(-c4cc5c(s4)C(=O)N(C4CC4)CCS5(=O)=O)n3)c(C3CC3)c2)CCN1` [Example 331, (S)-4-cyclopropyl-7-(2-((2-cyclopropyl-4-(3-methylpiperazin-1-yl)phenyl)amino)-5-(trifluoromethyl)pyrimidin-4-yl)-3,4-dihydrothieno[2,3-f][1,4]thiazepin-5(2H)-one 1,1-dioxide] and `C[C@H]1CN(c2ccc(Nc3ncc(C(F)(F)F)c(-c4cc5c(s4)C(=O)N(C4COC4)CCS5(=O)=O)n3)c(C3CC3)c2)CCN1` [Example 341, (S)-7-(2-((2-Cyclopropyl-4-(3-methylpiperazin-1-yl)phenyl)amino)-5-(trifluoromethyl)pyrimidin-4-yl)-4-(oxetan-3-yl)-3,4-dihydrothieno[2,3-f][1,4]thiazepin-5(2H)-one 1,1-dioxide] cannot be ordered by IC50: ≤ 5 nM for the first, ≤ 5 nM for the second.

`C[C@H]1CN(c2ccc(Nc3ncc(C(F)(F)F)c(-c4cc5c(s4)C(=O)N(C4CC4)CCS5(=O)=O)n3)c(C3CC3)c2)CCN1C` [Example 332, (S)-4-cyclopropyl-7-(2-((2-cyclopropyl-4-(3,4-dimethylpiperazin-1-yl)phenyl)amino)-5-(trifluoromethyl)pyrimidin-4-yl)-3,4-dihydrothieno[2,3-f][1,4]thiazepin-5(2H)-one 1,1-dioxide] and `O=C1c2sc(-c3nc(Nc4ccc(N5CC6CC(C5)N6)cc4C4CC4)ncc3C(F)(F)F)cc2S(=O)(=O)CCN1C1CC1` [Example 338, 7-(2-((4-(3,6-diazabicyclo[3.1.1]heptan-3-yl)-2-cyclopropylphenyl)amino)-5-(trifluoromethyl)pyrimidin-4-yl)-4-cyclopropyl-3,4-dihydrothieno[2,3-f][1,4]thiazepin-5(2H)-one 1,1-dioxide] cannot be ordered by IC50: ≤ 5 nM for the first, ≤ 5 nM for the second.

`CN1C[C@H]2C[C@@H]1CN2c1ccc(Nc2ncc(C(F)(F)F)c(-c3cc4c(s3)C(=O)N(C3COC3)CCS4(=O)=O)n2)c(C2CC2)c1` [Example 334, 7-(2-((2-cyclopropyl-4-((1R,4R)-5-methyl-2,5-diazabicyclo[2.2.1]heptan-2-yl)phenyl)amino)-5-(trifluoromethyl)pyrimidin-4-yl)-4-(oxetan-3-yl)-3,4-dihydrothieno[2,3-f][1,4]thiazepin-5(2H)-one 1,1-dioxide] and `O=C1c2sc(-c3nc(Nc4ccc(N5CC6CC(C5)N6)cc4C4CC4)ncc3C(F)(F)F)cc2S(=O)(=O)CCN1C1COC1` [Example 340, 7-(2-((4-(3,6-diazabicyclo[3.1.1]heptan-3-yl)-2-cyclopropylphenyl)amino)-5-(trifluoromethyl)pyrimidin-4-yl)-4-(oxetan-3-yl)-3,4-dihydrothieno[2,3-f][1,4]thiazepin-5(2H)-one 1,1-dioxide] cannot be ordered by IC50: ≤ 5 nM for the first, ≤ 5 nM for the second.

In the case of `CCc1cc(N2C[C@H]3C[C@@H]2CN3)ccc1Nc1ncc(C(F)(F)F)c(-c2cc3c(s2)C(=O)N(C2COC2)CCS3(=O)=O)n1` [Example 336, 7-(2-((4-((1R,4R)-2,5-diazabicyclo[2.2.1]heptan-2-yl)-2-ethylphenyl)amino)-5-(trifluoromethyl)pyrimidin-4-yl)-4-(oxetan-3-yl)-3,4-dihydrothieno[2,3-f][1,4]thiazepin-5(2H)-one 1,1-dioxide], the IC50 is reported as ≤ 5 nM.
